Measurements: patent US20220000804A1, “INTRANASAL NANO INDUCER FOR PREVENTING AND TREATING NEURODEGENERATIVE DISEASES AND METHOD THEREOF” (Nasal-Phyto (SZ) Pharmaceutical Technology Co., Ltd., priority 2019, published 2022)

Experiments:
Neuroma blast cells N2a = assay: Cytotoxicity test (MTT method); type: cell-based; details: 24 hours after drug addition
Method: A group of Neuroma blast cells N2a that are cultured in a blank medium without hydrophobic drugs (i.e., the curcumin analog M1) defines a negative control group, and a rate of cell viability of the Neuroma blast cells N2a in the negative control group is calculated as 100%. FIG. 8 illustrates the results.

[1] = Dissolution/dispersion in water and organic solvents, Tyndall effect; type: physicochemical

SMILES: COc1ccccc1/C=C/C(=O)/C=C/c1ccccc1OC [curcumin analog M1]
- cytotoxicity (cell survival rate) (Neuroma blast cells N2a): dose-dependent cytotoxicity
- solubility in tetrahydrofuran ([1]; tetrahydrofuran): soluble in tetrahydrofuran
- dissolution / dispersion in water ([1]; water): difficultly dissolved in water
